Measured values from PMC10609940, “Systemic Dendrimer-Peptide Therapies for Wet Age-Related Macular Degeneration” (Pharmaceutics, 2023).
Where a SMILES comes first, the peptide text is derived from it. [ ]: non-standard residue; d: D form. Cya = N[C@@H](CS(=O)(=O)O)C(=O)O

Key:
[1] = tested on: choroidal neovascularization (CNV) area; test: In vivo attenuation of CNV formation, intraperitoneal dosing, laser CNV model; set-up: species or system Brown Norway rats
Protocol: (§1) On the day of CNV induction (Day 0), D-ALG1001 and ALG1001 was administered intraperitoneally at a dose of 150 µg on a peptide basis. Subsequent doses were administered every 4 days. At days 7 and 14, mice were sacrificed and enucleated. Eyes used for CNV image were fixed in 10% formalin for 1 h. Eyes used for qPCR, ELISA, and Western blotting were immediately stored at −80 °C until use.
(§2) Eyes were mounted by introducing four radial relaxation cuts. […] All images were processed with ImageJ.
We then evaluated whether the improved protection and targeting of D-ALG allowed for less invasive administration routes. A laser was used to induce CNV at day 0, and the first dose (150 µg peptide basis) of ALG-1001 and D-ALG was administered intraperitoneally. The animals were dosed once every 4 days at 150 µg of peptide basis (7.5 mg/kg). Choroidal flatmounts of eyes at day 7 and 14 were imaged, and the CNV area was calculated using ImageJ.

[2] = tested on: VEGF-A expression in HUVEC; test: VEGF-A expression by endothelial cells (qPCR); format: cell-based, human; details: HUVEC coincubated with VEGF-A
[3] = tested on: IL1β and TNFα expression in RAW264.7 cells; test: In vitro inflammation model, LPS-stimulated macrophages (qPCR); format: cell-based, Murine; details: 24 h pretreatment, LPS 3 h
[4] = tested on: VEGF-A, TNFα, IL1β expression in choroid; test: qPCR of VEGF-A, TNFα and IL1β in choroid, laser CNV model; format: in vivo, Brown Norway rats; details: 150 µg peptide basis i.p. every 4 days, days 7 and 14, trend
[5] = tested on: FAK, p-FAK (Y397), p44/42 ERK, phospho-p44/42 ERK in choroidal tissue; test: ELISA of FAK and ERK pathway activation in choroid, laser CNV model; format: in vivo, Brown Norway rats; details: 150 µg peptide basis i.p. every 4 days
Protocol: as §1
In brief, 500 µL of T-Per supplemented with PhosStop and proteinase inhibitor cocktail was added to tubes containing dissected choroid. A scoop of 1.6 mm steel homogenization beads was added to each sample and then placed in TissueLyserLT (Qiagen, Germantown, MD, USA) at an oscillation frequency of 50 cycles/s for 15 min.
For protein extracted from tissues, total FAK and FAK (Phospho) [pY397] ELISA kits (Invitrogen) were used to quantify the level of protein expression, and the measured protein expression was normalized to the total protein amount of each sample as determined from BCA assays.
To evaluate the activation of FAK and ERK pathways, eyes were enucleated at set time points, and the choroidal tissue dissected out. Tissues were submerged in a mixture of T-per, proteinase inhibitor, and PhosStop with stainless-steel homogenization beads and homogenized to produce protein extracts. Total FAK, total ERK, p-FAK (Y397), and p-44/42 ERK ELISA kits were used to quantify the amount of total and phosphorylated proteins in FAK and ERK pathways. […] However, the level of total FAK protein in ALG-1001-treated animals was elevated at day 14.

[6] = tested on: choroidal neovascularization (CNV) area; test: In vivo attenuation of CNV formation, intravitreal injection, laser CNV model; set-up: species or system Brown Norway rats; details: intravitreal injection after CNV induction; day 7
Excerpt: as §2
A Micron III SLO scope and a laser attachment were used to induce CNV formation in mice. The laser CNV model was chosen due to its consistency in creating CNV and the progression of the CNV process. We first evaluated whether dendrimer conjugation impeded the peptide from attenuating CNV by first injecting free ALG-1001 and D-ALG intravitreally after CNV induction. The eyes were then collected on day 7 and the CNV area quantified.

[7] = tested on: phospho-ERK1/2 and phospho-FAK (Y397) in HUVEC cells; test: Western blot of ERK and FAK pathway activation after VEGF stimulation; format: cell-based, human; details: 100 µM on a peptide basis, 24 h pretreatment, VEGF 5 min; trend
Protocol: HUVEC cells were seeded at a density of 5 × 10^4 cells per well in 24-well plates 24 h before treatment. Cells were treated with D-ALG1001 and ALG-1001 for 24 h before activation with VEGF for 5 min. Cells were collected and lysed for Western blotting using T-Per buffer (ThermoFisher) supplemented with PhosStop and proteinase inhibitor cocktail. Cells were lysed with Trizol and processed as previously described for qPCR analysis.
In brief, the concentration of protein was determined with the BCA protein assay kit (Thermo Scientific, Rockford, IL, USA). Equal amounts of protein were denatured and resolved on 4–15% TGX gels (Bio-Rad, Hercules, CA, USA). Gels were transferred to nitrocellulose membranes, blocked with 3% BSA at RT for 1 h and probed for GAPDH, FAK, pFAK, MAPK, and pMAPK at 4 °C overnight. Membranes were washed thrice before incubation with HRP-conjugated secondary antibodies followed by incubation with chemiluminescent substrate for visualization.
To elucidate the mechanism through which D-ALG and free ALG-1001 influence angiogenic function, we pretreated the cells with D-ALG and free ALG-1001 for 24 h. The cells were then stimulated with a high dose of exogenous VEGF for 5 min after which the samples were collected for Western blotting. […]

HUVEC cells [8] = test: In vitro vessel (tube) formation assay on Matrigel; format: cell-based, human
Protocol: First, 96-well plates were coated with 75 µL of Matrigel and left at room temperature for 15 min before being placed into 37 °C incubators for an additional 30 min. Then, D-ALG1001 was dissolved at twice the desired concentration and 50 µL of the drug solution was added to the wells. HUVEC cells were then added to each well at a density of 70,000 cells/cm^2. Live-cell images were taken at 12 h for analysis.
To compare the dose–response efficacy of free and D-ALG in a physiologically relevant model, we utilized an in vitro model of blood vessel formation. HUVEC cells were treated with a gradient concentration of D-ALG and ALG-1001 for 24 h at three different magnitudes of doses. The cells were then seeded on Matrigel after which cells naturally migrate to form blood vessel-like tubule structures. The images were analyzed with the Angiogenesis Analyzer plug-in on ImageJ to extract relevant metrics that measure the connectivity and integrity of tube networks (Figure 3A and Figure S8).
Figure 3 In vitro inhibition of vessel formation. (A) Image analysis of HUVECs seeded onto a Matrigel matrix using the Angiogenesis Analyzer plug-in for ImageJ. […]

HUVEC cells [9] = test: Wound-healing (scratch) assay; format: cell-based, human; details: HUVEC monolayer pretreated 24 h; 24 h after injury; dose not stated
Protocol: HUVEC cells were seeded at a density of 5 × 10^4 cells per well in 24-well plates and set aside for at least 72 h for a uniform monolayer of cells to form. Cells were treated with D-ALG1001 and ALG-1001 for 24 h. A centimeter-long scratch was introduced to the cell monolayer with the tip of a 200 µL pipette tip. Images were taken on a Nikon
In addition to cell morphological and motility changes measured by tube formation assays, we investigated the activity of D-ALG and ALG-1001 in a wound-healing assay. Previous studies have utilized this method to assess cell migration and proliferation. Monolayers of HUVECs were pretreated with D-ALG or ALG-1001 followed by scratching the monolayer with a pipette tip. Images were taken at the time of the wound and at 24 h after injury. The proliferative activity of endothelial cells can be measured by the area that was healed postinjury to the monolayer. Untreated cells managed to heal up to 80% of the initial damage after 24 h, while cells treated with D-ALG and ALG-1001 healed up to 50% of the initial wound area. […] Because neovascularization is driven in part by the proliferation and migration of endothelial cells in the disease area, reductions in these activities as observed in cells treated with D-ALG can modulate endothelial cell contributions to the neovascularization process.

How did the “reduction of CNV area on day 14” value ([1]; 150 µg peptide basis (7.5 mg/kg) intraperitoneally every 4 days, choroidal flatmounts, ImageJ) turn out when `C[C@@H](O)[C@H](NC(=O)[C@H](CS(=O)(=O)O)NC(=O)CNC(=O)[C@H](CCCNC(=N)N)NC(=O)CN)C(=O)N1CCC[C@H]1C(=O)O` [ALG-1001] (H-GRG[Cya]TP-OH; N-terminus and C-terminus assumed) was run?
The value was 20%.

What about the “CNV area at day 14 (in words)” value ([1]; 150 µg peptide basis intraperitoneally every 4 days) of the same molecule?
Its value is “recovered”.

What about the “VEGF production compared to the control” value [2] of the same molecule?
Its value is “did not have statistically significant increases”.

And the “impact on IL1β production” value ([3]; high and low dose)?
Its value is “no impact”.

What about the “reduction of TNFα expression” value ([3]; high dose 1 mM) of the same molecule?
Its value is 20%.

And the IL1β expression [4]?
The IL1β expression was “only reduced at day 14”.

And the “TNFα level (relative expression)” value [4]?
Its value is “lower TNFα levels across both time points”.

And the “VEGF-A production (relative expression)” value [4]?
Its value is “lower VEGF-A production at 14 days only”.

And the “total ERK” value ([5]; day 7)?
The value was “remained relatively constant”.

What about the “total ERK compared to untreated animals” value ([5]; day 14) of the same molecule?
The value was “slight trend in the reduction”.

And the “total FAK protein” value ([5]; day 14)?
The value was “elevated”.

What about the “p-FAK protein compared to untreated controls” value ([5]; days 7 and 14) of the same molecule?
Its value is “trend in the reduction”.

And the “formation of CNV after intravitreal administration” value [6]?
The value was “significantly inhibited the formation of CNV”.

What about the “phospho-ERK1/2 expression compared to untreated, VEGF stimulated controls” value [7] of the same molecule?
The value was “lower levels”.

What about the “phospho-FAK expression compared to untreated, VEGF stimulated controls” value [7] of the same molecule?
Its value is “lower levels”.

What about the “vessel formation compared to untreated cells” value (HUVEC cells [8]; 1 mM, Angiogenesis Analyzer, ImageJ) of the same molecule?
The value was “significantly reduced vessel formation”.

What about the “vessel formation, effect of lower doses” value (HUVEC cells [8]; doses below 1 mM) of the same molecule?
Its value is “not effective”.

What about the “initial wound area healed” value (HUVEC cells [9]) of the same molecule?
Its value is “up to 50%”.
